Assay results from patent publication US7199285B2, “Modulation of abscisic acid signal transduction in plants” (University of California, San Diego, priority 2000, dated 2007).

What was measured:
abh1 mutant = experiment: seed germination, hypocotyl and root growth assays in the presence of hormones; assay type: in vivo, Arabidopsis thaliana; settings: abh1, hormone concentrations from 10 nM to 100 μM
Experimental: Other hormone signaling mutants were analyzed in control experiments: axr1–3 (auxin insensitive) (C. Lincoln et al., Plant Cell, 2:1071(1990)), ein2-1 (ethylene insensitive) (J. M. Alonso et al., Science, 284:2148 (1999)), gai-1 (GA insensitive) (M. Koornneef et al., Physiol Plant., 65:33 (1985)), era1-2 (ABA hypersensitive) (S. Cutler et al., Science, 273:1239 (1996))), and jar1-1 (JA insensitive) (P. E. Staswick et al., Proc. Natl. Acad. Sci. U.S.A., 89:6837 (1992)).

[1] = system: Arabidopsis thaliana seeds; experiment: seed germination on minimum medium with ABA; assay type: in vivo; settings: 0.3 μM ABA
Experimental: This was carried out using Arabidopsis lines (Columbia background, T3 seeds), which were transformed with a T-DNA (SK1015) (D. Weigel et al., Plant Physiol., 122:1003 (2000)), and plated on minimum medium (0.25×MS) with 0.3 μM ABA. After 4 days at 4° C., seeds were transferred to 28° C., continuous light. After 5 more days, germination was analyzed. Non-germinated seeds were transferred to soil and further analyzed.

guard cells [2] = experiment: stomatal closure in response to ABA; assay type: cell-based, Arabidopsis thaliana; settings: abh1, stomata opened 12 hours at 95% humidity
Experimental: ABH1 is expressed in guard cells. To determine whether ABH1 modulates early ABA signal transduction elements, stomatal closure in response to ABA was investigated. Stomata were opened by exposing plants for 12 hours to high humidity (95%). Under these conditions stomatal apertures were similar in wild-type and abh1 (2.03±0.19 μm, wild-type, n=60; 1.92±0.21 μm, abh1, n=60; P>0.38). Stomatal closure in abh1 was ABA hypersensitive compared to wild-type (P<0.001). When stomatal apertures were measured in leaves harvested directly from plants grown under lower humidity (40%), without exogenous ABA addition, stomatal apertures of abh1 were smaller than those of wild-type plants (P<0.001), possibly resulting from a hypersensitive response to endogenous ABA.

guard cells [3] = experiment: time-resolved cameleon [Ca2+]cyt imaging of ABA-induced [Ca2+]cyt elevations; assay type: cell-based, Arabidopsis thaliana
Experimental: Due to the basal regulation of anion and K^+ channels in abh1 without addition of exogenous ABA, experiments were pursued to analyze whether mechanisms lying further upstream confer ABA hypersensitivity in abh1. […] Therefore we directly investigated whether abh1 modulates ABA-induced [Ca^2+]cyt elevations in time-resolved cameleon [Ca^2+]cyt imaging experiments (G. J. Allen et al, The Plant J., 19:735 (1999)). Stomata were opened by exposing plants for 12 hours to 95% humidity.

SMILES	phenotypic response (sensitivity) of abh1 mutant to hormone (abh1 mutant)	germination ([1]; abh1 mutant seeds)	germination ([1]; wild-type seeds)	stomatal closure sensitivity compared to wild-type (guard cells [2])	cells responding with one [Ca2+]cyt elevation (guard cells [3]; abh1, 0.5 μM ABA) [%]	cells showing multiple repetitive [Ca2+]cyt increases (guard cells [3]; abh1, 0.5 μM ABA) [%]	cells showing no response (guard cells [3]; abh1, 0.5 μM ABA) [%]	guard cells showing [Ca2+]cyt increases (guard cells [3]; abh1, 0.5 μM ABA) [%]	average peak increase of [Ca2+]cyt (guard cells [3]; wild-type, 0.5 μM ABA) [nM]	guard cells showing [Ca2+]cyt increase (typically only one) (guard cells [3]; wild-type, 0.5 μM ABA) [%]	guard cells showing no [Ca2+]cyt increase (guard cells [3]; wild-type, 0.5 μM ABA) [%]
C=C1C[C@]23C[C@@]1(O)CC[C@H]2[C@@]12C=C[C@H](O)[C@@](C)(C(=O)O1)[C@H]2[C@@H]3C(=O)O [GA, gibberellic acid]	slightly reduced sensitivity	–	–	–	–	–	–	–	–	–	–
CC1=CC(=O)CC(C)(C)[C@@]1(O)/C=C/C(C)=C\C(=O)O [ABA, abscisic acid]	showed phenotypic responses only to ABA	inhibited	allowed germination	hypersensitive	19	45	36	64	170 ± 25	44	56
